US8952157B2, “Apoptosis-inducing agents for the treatment of cancer and immune and autoimmune diseases” (AbbVie Inc., priority 2008, dated 2015)

These compounds were tested against GST-Bcl-2 (Homo sapiens (Human), UniProt P10415) (assay: Time Resolved-Fluorescence Resonance Energy Transfer (TR-FRET) Bcl-2 binding assay). Conditions: not given.
Method in brief: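 Competition TR-FRET: GST-Bcl-2 with fluorescent Bak peptide probe and Tb-anti-GST antibody, compounds serially diluted from 50 μM (2× start, 10% DMSO).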

Chain of GST-Bcl-2 (P10415 whole entry): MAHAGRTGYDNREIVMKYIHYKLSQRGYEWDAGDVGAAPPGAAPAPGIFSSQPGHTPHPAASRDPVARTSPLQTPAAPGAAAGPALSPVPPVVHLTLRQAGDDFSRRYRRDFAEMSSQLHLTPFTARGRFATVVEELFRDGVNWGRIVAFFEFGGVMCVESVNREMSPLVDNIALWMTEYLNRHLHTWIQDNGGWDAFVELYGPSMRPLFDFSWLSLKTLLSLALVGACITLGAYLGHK

SMILES	Ki [pM]
O=C(NS(=O)(=O)c1ccc(N[C@H]2CC[C@H](N3CCOCC3)CC2)c(S(=O)(=O)C(F)(F)F)c1)c1ccc(N2CCN(CC3=C(c4ccc(Cl)cc4)CCOCC3)CC2)cc1Oc1cc2cc[nH]c2cc1Cl [Example 314, Trans-2-[(6-chloro-1H-indol-5-yl)oxy]-4-(4-{[5-(4-chlorophenyl)-2,3,6,7-tetrahydrooxepin-4-yl]methyl}piperazin-1-yl)-N-({4-[(4-morpholin-4-ylcyclohexyl)amino]-3-[(trifluoromethyl)sulfonyl]phenyl}sulfonyl)benzamide]	3090
CN1CCC(Nc2ccc(S(=O)(=O)NC(=O)c3ccc(N4CCN(CC5=C(c6ccc(Cl)cc6)CC(C)(C)CC5)CC4)cc3Oc3cc4cc[nH]c4cc3C(F)(F)F)cc2[N+](=O)[O-])CC1 [Example 217, 4-(4-{[2-(4-chlorophenyl)-4,4-dimethylcyclohex-1-en-1-yl]methyl)piperazin-1-yl)-N-((4-[(1-methylpiperidin-4-yl)amino]-3-nitrophenyl}sulfonyl)-2-{[6-(trifluoromethyl)-1H-indol-5-yl]oxy}benzamide]	174

Same assay, conditions: GST-Bcl-2 1 nM, F-Bak peptide probe 100 nM, Tb-anti-GST antibody 1 nM; Ki by Wang's equation

SMILES	Ki [pM]
CC1(C)CCC(CN2CCN(c3ccc(C(=O)NS(=O)(=O)c4cnc(OCC5(F)CCOCC5)c(Cl)c4)c(Oc4cnc(N)c(Cl)c4)c3)CC2)=C(c2ccc(Cl)cc2)C1 [Example 349, 2-[(6-amino-5-chloropyridin-3-yl)oxy]-N-({5-chloro-6-[(4-fluorotetrahydro-2H-pyran-4-yl)methoxy]pyridin-3-yl}sulfonyl)-4-(4-{[2-(4-chlorophenyl)-4,4-dimethylcyclohex-1-en-1-yl]methyl}piperazin-1-yl)benzamide]	19
CN(C)CCCNc1ccc(S(=O)(=O)NC(=O)c2ccc(N3CCN(Cc4ccccc4-c4ccc(Cl)cc4)CC3)cc2Oc2cccc3c2CCC(=O)N3)cc1[N+](=O)[O-] [Example 58, 4-(4-((4′-chloro-1,1′-biphenyl-2-yl)methyl)piperazin-1-yl)-N-((4-((3-(dimethylamino)propyl)amino)-3-nitrophenyl)sulfonyl)-2-((2-oxo-1,2,3,4-tetrahydroquinolin-5-yl)oxy)benzamide]	155
CN1CCC(Nc2ccc(S(=O)(=O)NC(=O)c3ccc(N4CCN(CC5=C(c6ccc(Cl)cc6)CC(C)(C)CC5)CC4)cc3Oc3cc(Cl)ccc3Cl)cc2[N+](=O)[O-])CC1 [Example 60, 4-(4-((2-(4-chlorophenyl)-4,4-dimethylcyclohex-1-en-1-yl)methyl)piperazin-1-yl)-2-(2,5-dichlorophenoxy)-N-((4-((1-methylpiperidin-4-yl)amino)-3-nitrophenyl)sulfonyl)benzamide]	187
CCN1CCC(Nc2ccc(S(=O)(=O)NC(=O)c3ccc(N4CCN(CC5=C(c6ccc(Cl)cc6)CC(C)(C)CC5)CC4)cc3Oc3cccc(Cl)c3)cc2[N+](=O)[O-])CC1 [Example 174, 2-(3-chlorophenoxy)-4-(4-{[2-(4-chlorophenyl)-4,4-dimethylcyclohex-1-en-1-yl]methyl}piperazin-1-yl)-N-({4-[(1-ethylpiperidin-4-yl)amino]-3-nitrophenyl}sulfonyl)benzamide]	37
CN1CCN(Nc2ccc(S(=O)(=O)NC(=O)c3ccc(N4CCN(CC5=C(c6ccc(Cl)cc6)CC(C)(C)CC5)CC4)cc3Oc3ccccc3Cl)cc2[N+](=O)[O-])CC1 [Example 184, 2-(2-chlorophenoxy)-4-(4-{[2-(4-chlorophenyl)-4,4-dimethylcyclohex-1-en-1-yl]methyl}piperazin-1-yl)-N-({4-[(4-methylpiperazin-1-yl)amino]-3-nitrophenyl}sulfonyl)benzamide]	155
COc1cccc(Oc2cc(N3CCN(Cc4ccccc4-c4ccc(Cl)cc4)CC3)ccc2C(=O)NS(=O)(=O)c2ccc(NCC3CCOCC3)c([N+](=O)[O-])c2)c1 [Example 20, 4-(4-((4′-chloro-1,1′-biphenyl-2-yl)methyl)piperazin-1-yl)-2-(3-methoxyphenoxy)-N-((3-nitro-4-((tetrahydro-2H-pyran-4-ylmethyl)amino)phenyl)sulfonyl)benzamide]	3960
CC(C)(C)OC(=O)Nc1cccc(Oc2cc(N3CCN(Cc4ccccc4-c4ccc(Cl)cc4)CC3)ccc2C(=O)NS(=O)(=O)c2ccc(NCC3CCOCC3)c([N+](=O)[O-])c2)c1 [Example 85, tert-butyl 3-(5-(4-((4′-chloro-1,1′-biphenyl-2-yl)methyl)piperazin-1-yl)-2-((((3-nitro-4-((tetrahydro-2H-pyran-4-ylmethyl)amino)phenyl)sulfonyl)amino)carbonyl)phenoxy)phenylcarbamate]	5630
C=CCN1CCC(Nc2ccc(S(=O)(=O)NC(=O)c3ccc(N4CCN(CC5=C(c6ccc(Cl)cc6)CC(C)(C)CC5)CC4)cc3Oc3cccc(F)c3F)cc2[N+](=O)[O-])CC1 [Example 146, N-({4-[(1-allylpiperidin-4-yl)amino]-3-nitrophenyl}sulfonyl)-4-(4-{[2-(4-chlorophenyl)-4,4-dimethylcyclohex-1-en-1-yl]methyl}piperazin-1-yl)-2-(2,3-difluorophenoxy)benzamide]	40
CN1CCC(Nc2ccc(S(=O)(=O)NC(=O)c3ccc(N4CCN(CC5=C(c6ccc(Cl)cc6)CC(C)(C)OC5)CC4)cc3Oc3ccccc3Cl)cc2[N+](=O)[O-])CC1 [Example 38, 2-(2-chlorophenoxy)-4-(4-((4-(4-chlorophenyl)-6,6-dimethyl-5,6-dihydro-2H-pyran-3-yl)methyl)piperazin-1-yl)-N-((4-((1-methylpiperidin-4-yl)amino)-3-nitrophenyl)sulfonyl)benzamide]	13
CN1CCC(Nc2ccc(S(=O)(=O)NC(=O)c3ccc(N4CCN(CC5=C(c6ccc(Cl)cc6)CC(C)(C)CC5)CC4)cc3Oc3cc(F)cc(F)c3Cl)cc2[N+](=O)[O-])CC1 [Example 165, 2-(2-chloro-3,5-difluorophenoxy)-4-(4-{[2-(4-chlorophenyl)-4,4-dimethylcyclohex-1-en-1-yl]methyl}piperazin-1-yl)-N-({4-[(1-methylpiperidin-4-yl)amino]-3-nitrophenyl}sulfonyl)benzamide]	120
CNC(=O)c1cccc(Oc2cc(N3CCN(Cc4ccccc4-c4ccc(Cl)cc4)CC3)ccc2C(=O)NS(=O)(=O)c2ccc(NCCCN3CCOCC3)c([N+](=O)[O-])c2)c1 [Example 103, 4-(4-((4′-chlorobiphenyl-2-yl)methyl)piperazin-1-yl)-2-(3-(methylcarbamoyl)phenoxy)-N-(4-(3-morpholinopropylamino)-3-nitrophenylsulfonyl)benzamide]	6760
O=C(NS(=O)(=O)c1ccc(NCC2CCOCC2)c([N+](=O)[O-])c1)c1ccc(N2CCN(Cc3ccccc3-c3ccc(Cl)cc3)CC2)cc1Oc1cccc([N+](=O)[O-])c1 [Example 8, 4-(4-((4′-chloro-1,1′-biphenyl-2-yl)methyl)piperazin-1-yl)-2-(3-nitrophenoxy)-N-((3-nitro-4-((tetrahydro-2H-pyran-4-ylmethyl)amino)phenyl)sulfonyl)benzamide]	3450
CN(C)CCOc1cccc(Oc2cc(N3CCN(Cc4ccccc4-c4ccc(Cl)cc4)CC3)ccc2C(=O)NS(=O)(=O)c2ccc(NCC3CCOCC3)c([N+](=O)[O-])c2)c1 [Example 39, 4-(4-((4′-chloro-1,1′-biphenyl-2-yl)methyl)piperazin-1-yl)-2-(3-(2-(dimethylamino)ethoxy)phenoxy)-N-((3-nitro-4-((tetrahydro-2H-pyran-4-ylmethyl)amino)phenyl)sulfonyl)benzamide]	19
CN(C)CCCNc1ccc(S(=O)(=O)NC(=O)c2ccc(N3CCN(Cc4ccccc4-c4ccc(Cl)cc4)CC3)cc2Oc2cccc(Cl)c2)cc1[N+](=O)[O-] [Example 14, 4-(4-((4′-chloro-1,1′-biphenyl-2-yl)methyl)piperazin-1-yl)-2-(3-chlorophenoxy)-N-((4-((3-(dimethylamino)propyl)amino)-3-nitrophenyl)sulfonyl)benzamide]	79
CC1(C)CCC(CN2CCN(c3ccc(C(=O)NS(=O)(=O)c4ccc(NC5CCN(C6CCOCC6)CC5)c([N+](=O)[O-])c4)c(Oc4ccc(O)cc4Cl)c3)CC2)=C(c2ccc(Cl)cc2)C1 [Example 216, 2-(2-chloro-4-hydroxyphenoxy)-4-(4-{[2-(4-chlorophenyl)-4,4-dimethylcyclohex-1-en-1-yl]methyl}piperazin-1-yl)-N-({3-nitro-4-[(1-tetrahydro-2H-pyran-4-ylpiperidin-4-yl)amino]phenyl}sulfonyl)benzamide]	27
CC1(C)CCC(CN2CCN(c3ccc(C(=O)NS(=O)(=O)c4ccc(OCC5(F)CCOCC5)c([N+](=O)[O-])c4)c(Oc4cc5cc[nH]c5cc4F)c3)CC2)=C(c2ccc(Cl)cc2)C1 [Example 296, 4-(4-{[2-(4-chlorophenyl)-4,4-dimethylcyclohex-1-en-1-yl]methyl}piperazin-1-yl)-2-[(6-fluoro-1H-indol-5-yl)oxy]-N-({4-[(4-fluorotetrahydro-2H-pyran-4-yl)methoxy]-3-nitrophenyl}sulfonyl)benzamide]	< 10
CC1(C)CCC(CN2CCN(c3ccc(C(=O)NS(=O)(=O)c4ccc(NC5CCN(C6CCOCC6)CC5)c([N+](=O)[O-])c4)c(Oc4cc5cc[nH]c5c(F)c4F)c3)CC2)=C(c2ccc(Cl)cc2)C1 [Example 201, 4-(4-{[2-(4-chlorophenyl)-4,4-dimethylcyclohex-1-en-1-yl]methyl}piperazin-1-yl)-2-[(6,7-difluoro-1H-indol-5-yl)oxy]-N-({3-nitro-4-[(1-tetrahydro-2H-pyran-4-ylpiperidin-4-yl)amino]phenyl}sulfonyl)benzamide]	10
CN1CCC(Nc2ccc(S(=O)(=O)NC(=O)c3ccc(N4CCN(CC5=C(c6ccc(Cl)cc6)CC(C)(C)CC5)CC4)cc3Nc3ccccc3Cl)cc2[N+](=O)[O-])CC1 [Example 230, 2-[(2-chlorophenyl)amino]-4-(4-{[2-(4-chlorophenyl)-4,4-dimethylcyclohex-1-en-1-yl]methyl}piperazin-1-yl)-N-({4-[(1-methylpiperidin-4-yl)amino]-3-nitrophenyl}sulfonyl)benzamide]	2830
